# Measured values: ChEMBL document CHEMBL1126446, “Acetylcholine releasing agents as cognition activators. Chemistry and pharmacology of a series of ureas” (1992)
# Tests used:
# Assay type in all cases: functional
# [1] = species on record: Rattus norvegicus; assay: Compound was tested for the selective increase in basal stimulated AcCh release in hippocampus at 100 uM
# [2] = species on record: Rattus norvegicus; assay: Compound was tested for the selective increase in K+ stimulated AcCh release in hippocampus at 100 uM
# [3] = species on record: Rattus norvegicus; assay: Compound was tested for the selective increase in basal stimulated AcCh release in cortex at 100 uM
# [4] = species on record: Rattus norvegicus; assay: Compound was tested for the selective increase in K+ stimulated AcCh release in cortex at 100 uM
# [5] = species on record: Rattus norvegicus; assay: Compound was tested for the selective increase in basal stimulated AcCh release in striatum; set-up: concentration or dose not given beside the values
# [6] = species on record: Rattus norvegicus; assay: Compound was tested for the selective increase in K+ stimulated AcCh release in striatum; set-up: concentration or dose not given beside the values
# [7] = species on record: Rattus norvegicus; assay: Compound was tested for the selective increase in basal stimulated AcCh release in brain region of hippocampus at 50 uM concentration
# [8] = species on record: Rattus norvegicus; assay: Compound was tested for the selective increase in K+ stimulated AcCh release in cortex at 10 uM concentration
# [9] = species on record: Rattus norvegicus; assay: Compound was tested for the selective increase in K+ stimulated AcCh release in brain region of hippocampus at 1 uM concentration
# [10] = species on record: Rattus norvegicus; assay: Compound was tested for the selective increase in K+ stimulated AcCh release in brain region of hippocampus at 50 uM concentration
# [11] = species on record: Rattus norvegicus; assay: Compound was tested for the selective increase in K+ stimulated AcCh release in cortex at 100 uM concentration
# [12] = species on record: Rattus norvegicus; assay: Compound was tested for the selective increase in basal stimulated AcCh release in striatum at 100 uM concentration
# [13] = species on record: Rattus norvegicus; assay: Compound was tested for the selective increase in K+ stimulated AcCh release in cortex at 1 uM concentration
# [14] = species on record: Rattus norvegicus; assay: Compound was tested for the selective increase in basal stimulated AcCh release in cortex at 10 uM concentration
# [15] = species on record: Rattus norvegicus; assay: Compound was tested for the selective increase in K+ stimulated AcCh release in cortex at 50 uM concentration
# [16] = species on record: Rattus norvegicus; assay: Compound was tested for the selective increase in K+ stimulated AcCh release in striatum 100 uM concentration
# [17] = species on record: Rattus norvegicus; assay: Compound was tested for the selective increase in basal stimulated AcCh release in cortex at 1 uM concentration
# [18] = species on record: Rattus norvegicus; assay: Compound was tested for the selective increase in basal stimulated AcCh release in brain region of hippocampus at 1 uM concentration
# [19] = species on record: Rattus norvegicus; assay: Compound was tested for the selective increase in K+ stimulated AcCh release in brain region of hippocampus at 10 uM concentration
# [20] = species on record: Rattus norvegicus; assay: Compound was tested for the selective increase in K+ stimulated AcCh release in striatum 1 uM concentration
# [21] = species on record: Rattus norvegicus; assay: Compound was tested for the selective increase in basal stimulated AcCh release in brain region of hippocampus at 10 uM concentration
# [22] = species on record: Rattus norvegicus; assay: Compound was tested for the selective increase in K+ stimulated AcCh release in brain region of hippocampus at 100 uM concentration
# [23] = species on record: Rattus norvegicus; assay: Compound was tested for the selective increase in basal stimulated AcCh release in cortex at 100 uM concentration
# [24] = species on record: Rattus norvegicus; assay: Compound was tested for the selective increase in basal stimulated AcCh release in brain region of hippocampus at 100 uM concentration
# [25] = species on record: Rattus norvegicus; assay: Compound was tested for the selective increase in basal stimulated AcCh release in striatum at 10 uM concentration
# [26] = species on record: Rattus norvegicus; assay: Compound was tested for the selective increase in basal stimulated AcCh release in cortex at 50 uM concentration
# [27] = species on record: Rattus norvegicus; assay: Compound was tested for the selective increase in K+ stimulated AcCh release in striatum 50 uM concentration
# [28] = species on record: Rattus norvegicus; assay: Compound was tested for the selective increase in basal stimulated AcCh release in striatum at 50 uM concentration
# [29] = species on record: Rattus norvegicus; assay: Compound was tested for the selective increase in K+ stimulated AcCh release in striatum 10 uM concentration
# [30] = species on record: Rattus norvegicus; assay: Compound was tested for the selective increase in basal stimulated AcCh release in striatum at 1 uM concentration
# [31] = species on record: Mus musculus; assay: Compound was tested for the minimum effective dose required for the inhibition of cholinesterase in mouse water maze; conditions: read-out: MED
smiles,measurement,setting,value
O=C(N(c1ccccc1)c1ccccc1)N(c1ccncc1)c1ccc(Cl)cc1,AcCh release (% of control),[1],159.2%
same,Control,[2],231.4%
O=C(N(c1ccccc1)c1ccccc1)N(c1ccncc1)c1cccc(Cl)c1,AcCh release (% of control),[1],103.4%
same,Control,[2],9.8%
NC(=O)N(c1ccccc1)c1ccccc1,Control,[3],105.1%
same,Control,[4],111.4%
same,AcCh release (% of control),[1],92.2%
same,Control,[2],128.7%
same,Control,[5],105.9%
same,Control,[6],98.9%
O=C(N(c1ccccc1)c1ccccc1)N(c1ccccc1)c1ccncc1,Control,[3],95.2%
same,Control,[4],100%
same,AcCh release (% of control),[1],95.4%
same,Control,[2],129.8%
same,Control,[5],279.8%
same,Control,[6],206.5%
O=C(Nc1ccccc1)Nc1ccccc1 [DIPHENYLUREA],Control,[3],101.9%
same,Control,[4],125.8%
same,AcCh release (% of control),[1],89%
same,Control,[2],138.6%
same,Control,[5],97.1%
same,Control,[6],98.8%
Nc1ccncc1N [AMIFAMPRIDINE],Control,[7],119%
same,Control,[8],108.1%
same,Control,[9],121.9%
same,Control,[10],119.6%
same,Control,[11],110.8%
same,Control,[12],224.8%
same,Control,[13],93.5%
same,Control,[14],113.8%
same,Control,[15],103%
same,Control,[16],105.9%
same,Control,[17],104.2%
same,Control,[18],106.2%
same,Control,[19],100.8%
same,Control,[20],88.8%
same,Control,[21],114%
same,Control,[22],106.9%
same,Control,[23],120.8%
same,Control,[24],127.8%
same,Control,[25],164.2%
same,Control,[26],116%
same,Control,[27],118.5%
same,Control,[28],180.9%
same,Control,[29],111.5%
same,Control,[30],129.3%
O=C(N(c1ccccc1)c1ccccc1)N(c1ccccc1)c1ccccn1,Control,[3],130%
same,Control,[4],158.8%
same,AcCh release (% of control),[1],113.5%
same,Control,[2],318.3%
same,Control,[5],232.1%
same,Control,[6],266.6%
O=C(N(c1ccccc1)c1ccccc1)N(c1ccccc1)c1ccccc1,Control,[3],144.1%
same,Control,[4],209.3%
same,AcCh release (% of control),[1],137.8%
same,Control,[2],420.6%
same,Control,[5],402.4%
same,Control,[6],303.7%
Cc1ccc(N(C(=O)N(c2ccccc2)c2ccccc2)c2ccncc2)cc1,minimal effective dose,[31],> 32 mg/kg
same,AcCh release (% of control),[1],186.4%
same,Control,[2],229%
Nc1ccncc1 [DALFAMPRIDINE],Control,[8],104%
same,Control,[9],97.3%
same,Control,[11],96.3%
same,Control,[12],170.9%
same,Control,[13],96.7%
same,Control,[14],102.4%
same,Control,[15],99.9%
same,Control,[16],131.6%
same,Control,[17],96.2%
same,Control,[18],112.7%
same,Control,[19],96.5%
same,Control,[20],94%
same,Control,[21],116.8%
same,Control,[22],105%
same,Control,[23],118%
same,Control,[24],128.1%
same,Control,[25],131.5%
same,Control,[26],112.2%
same,Control,[29],105.5%
same,Control,[30],107.6%
NC(=O)Nc1ccccc1 [PHENYLUREA],Control,[3],105.8%
same,Control,[4],116.4%
same,AcCh release (% of control),[1],94.1%
same,Control,[2],107.9%
same,Control,[5],99.3%
same,Control,[6],99.8%
O=C(N(c1ccccc1)c1ccncc1)N(c1ccc(F)cc1)c1ccc(F)cc1,AcCh release (% of control),[1],115.6%
same,Control,[2],48.9%
O=C(Nc1ccccc1)N(c1ccccc1)c1ccccc1,Control,[3],100.3%
same,Control,[4],195.7%
same,AcCh release (% of control),[1],78%
same,Control,[2],151.3%
same,Control,[5],259.5%
same,Control,[6],224%
O=C(N(c1ccccc1)c1ccccc1)N(c1ccncc1)c1ccc(Cl)c(Cl)c1,minimal effective dose,[31],32 mg/kg
same,AcCh release (% of control),[1],124.9%
same,Control,[2],46.6%
O=C(N(c1ccncc1)c1ccc(Cl)c(Cl)c1)N(C1CCCCC1)C1CCCCC1,AcCh release (% of control),[1],335.2%
same,Control,[2],233.2%
